Molecules are shown by their SMILES.

Common to all, as to assay type: cell-based, E. coli
The subject of one experiment is CC104 mutY::cam. Put plainly: Survival curves after cisplatin treatment. Particulars: presence or absence of chloramphenicol in growth medium. How it is done: (§1) MacConkey agar and LB broth were purchased from Difco. LB broth contained 10 g tryptone, 5 g yeast extract, and 10 g NaCl per 1 L. All antibiotics and cisplatin (cis-diammine-dichloro-platinum(II), or CDDP) were purchased from Sigma-Aldrich. Antibiotics were used at the following final concentrations: 15 μg/ml tetracycline (Tc), 100 μg/ml ampicillin, 50 μg/ml kanamycin, 100 μg/ml streptomycin, 30 μg/ml nalidixic acid and 20 μg/ml chloramphenicol. Cisplatin solutions were prepared by dissolution in phosphate buffered saline (PBS) at 37° C. for one hour with rotation, filtering the solution through a 0.2 μm Acrodisc filter, and determining the concentration by UV absorbance at A301 using a Beckmann DU-65 spectrophotometer. Appropriate doses of cisplatin were then prepared by dilution in PBS.
(§2) Cells were grown overnight from single colonies in LB broth. The next morning, saturated overnight cultures were diluted 1:100 and grown for two hours to mid-log phase (cell density approximately 3×10^8 cells/ml). At this time, the cells were spun down, resuspended in M9 minimal salts, and treated with various concentrations of cisplatin at 37° C. for 1 hour. Exposure to cisplatin was stopped by dilution of the cells 1:100 in M9 salts. Appropriate serial dilutions were prepared for each dose and plated on LB plates or LB/Tet plates. Colonies were counted the next day after incubation at 37° C. Survival was calculated as a percentage of cells forming colonies in treated populations relative to untreated.

For another experiment, the system named is AB1157/pBR322. Briefly: Survival curves after cisplatin treatment. Particulars: grown with tetracycline prior to cisplatin treatment. As for the experimental part: (§3) Strains carrying the pBR322 plasmid were created using a standard transformation by electroporation protocol. Briefly, cells were grown to mid-log phase, spun down, and washed 3 times in ice-cold sterile water. Cells were then resuspended in the final volume of 100 μl of ice-cold sterile water, and 10 μg pBR322 (New England BioLabs) was added. The BTX electroporation system, ElectroCell Manipulator 600, was used to deliver the pulse. After the pulse, cells were immediately resuspended in 1 ml of LB broth. Appropriate dilutions of cells were prepared in M9 minimal salts, plated on LB-ampicillin plates, and allowed to form colonies overnight.
as §1, §2

The test system of another experiment is CC104/pBR322. Briefly: Survival curves after cisplatin treatment. Particulars: grown with tetracycline prior to cisplatin treatment. How it is done: as §3, §1, §2
A further experiment concerns MG1655/pBR322. Briefly: Survival curves after cisplatin treatment. How it is done:
as §3, §1, §2

Another experiment relates to AB1157 mutS::tet. Briefly: Survival curves after cisplatin treatment. As for the experimental part:
as §1, §2

The next experiment concerns GM7330 fpg::tet. Briefly: Survival curves after cisplatin treatment. As for the experimental part: as §1, §2
For a further experiment, the system named is CC104 mutY::tet. Put plainly: Survival curves after cisplatin treatment. How it is done:
as §1, §2

For the next experiment, the system named is MG1655/F′Tn10. Put plainly: Survival curves (colony formation) after cisplatin treatment. How it is done:
Strain GM4292 was constructed by mating exponentially growing XL1-Blue (Stratagene) with MG1655 (both at 1-2×10^8/ml at a 1:1 ratio) for 60 min and plating dilutions of the mixture on MacConkey agar-tetracycline plates. A red tetracycline-resistant, nalidixic acid-sensitive colony was selected, purified and designated GM4292. Strain GM4293 was constructed by introducing F′42 (F′lac^+) from AB 1874 into KM81 by conjugation as described above and selecting for Lac^+ Str^R colonies. A purified Lac^+ Str^R recombinant overnight culture was diluted and plated on MacConkey agar-kanamycin and following incubation overnight at 37° C., white colonies were selected. White colonies can arise either by gene conversion, where the lac^+ allele on the F′42 plasmid is converted to lacZ::Kan, or by loss of the F′lac^+. The white colonies were tested for their ability to transfer kanamycin-resistance at high frequency to MG1655, indicating retention of the F′ plasmid. One of these MG1655 recipients was designated GM4293.
as §1
Cells were grown overnight from single colonies in LB broth. The next morning, saturated overnight cultures were diluted 1:100 and grown for two hours to mid-log phase (cell density approximately 3×10^8 cells/ml). […] Exposure to cisplatin was stopped by dilution of the cells 1:100 in M9 salts. Appropriate serial dilutions were prepared for each dose and plated on LB plates or LB/Tet plates. Colonies were counted the next day after incubation at 37° C. Survival was calculated as a percentage of cells forming colonies in treated populations relative to untreated.

A further experiment deals with GM7330 fpg::amp. Briefly: Survival curves after cisplatin treatment. Particulars: presence or absence of ampicillin in growth medium. How it is done: as §1, §2
Where [1] appears, read: grown without tetracycline, treated with cisplatin alone.
[2] abbreviates: grown without tetracycline, treated with cisplatin in the presence of tetracycline.
[3] abbreviates: pre-treated and co-treated with tetracycline vs pre-treated only, cisplatin.
Setting [4] is: tetracycline absent from growth medium.

Take `O=C(N[C@H](CO)[C@H](O)c1ccc([N+](=O)[O-])cc1)C(Cl)Cl` [chloramphenicol]: the “effect of antibiotic in growth medium on survival upon cisplatin treatment” value in the experiment with CC104 mutY::cam is “did not produce the same degree of sensitization to cisplatin”.
On to `N.N.[Cl][Pt][Cl]` [cisplatin, cis-diammine-dichloro-platinum(II)], for which the sensitization to cisplatin entry in the experiment with AB1157/pBR322, in the experiment on CC104/pBR322 and in the experiment with MG1655/pBR322 (grown with tetracycline prior to cisplatin treatment) was “did not produce similar sensitization to cisplatin” in each case. The sensitivity to cisplatin result is “equally sensitive to cisplatin as MG1655 cells not carrying any tet genes” in the experiment with MG1655/pBR322 (setting [1]); “more sensitive to cisplatin than wild-type” with MG1655/F′Tn10 (4 hours, 10-fold lower cisplatin doses, co-treated with tetracycline only); “the most sensitive to cisplatin treatment” in the experiment with MG1655/F′Tn10 (4 hours, 10-fold lower cisplatin doses, pre-treated with tetracycline and co-treated with cisplatin and tetracycline); “more sensitive to cisplatin than wild-type” with MG1655/F′Tn10 (4 hours, 10-fold lower cisplatin doses, pre-treated with tetracycline only); “equally sensitive to cisplatin as MG1655 cells not carrying any tet genes” in the experiment on MG1655/F′Tn10 (setting [1]). For the same compound, the survival result is given as “their survival decreased” with MG1655/pBR322 (setting [2]); “not different from survival of wild-type cells” in the experiment with MG1655/F′Tn10 (4 hours, 10-fold lower cisplatin doses, neither pre-treated nor co-treated with tetracycline); “their survival decreased” in the experiment on MG1655/F′Tn10 (setting [2]). The “additional decrease in survival” value in the experiment on MG1655/pBR322 (setting [3]) and with MG1655/F′Tn10 (setting [3]) was 100 fold in each case. Besides, the “survival upon treatment with cisplatin” value in the experiment on AB1157 mutS::tet (grown with tetracycline) is recorded as “dramatically decreased”; in the experiment with AB1157 mutS::tet (setting [4]), “not different from respective wild-types”; in the experiment with GM7330 fpg::tet (grown with tetracycline) it was “dramatically decreased”; in the experiment on GM7330 fpg::tet (setting [4]), “not different from respective wild-types”; in the experiment on CC104 mutY::tet (grown with tetracycline) it was “dramatically decreased”; with CC104 mutY::tet (setting [4]), “not different from respective wild-types”. Besides, the “survival upon exposure to cisplatin” value in the experiment with MG1655/F′Tn10 (grown without tetracycline, cisplatin 1 hour) is “not different from that of MG1655 wild-type cells”. Further, the “survival upon subsequent treatment with cisplatin” value with MG1655/F′Tn10 (tetracycline 15 μg/ml in growth medium of overnight and log phase cultures, cisplatin 1 hour) is given as “dramatic decrease in survival”. The “killed more effectively than wild-type bacteria” value with MG1655/F′Tn10 (tetracycline-resistant bacteria grown in tetracycline, then cisplatin in the presence of tetracycline, vs wild-type or resistant bacteria not exposed to tetracycline) is listed as “about 10^5 fold”.
With `CC1(C)S[C@@H]2[C@H](NC(=O)[C@H](N)c3ccccc3)C(=O)N2[C@H]1C(=O)O` [ampicillin], the “effect of antibiotic in growth medium on survival upon cisplatin treatment” value in the experiment on GM7330 fpg::amp was “did not produce the same degree of sensitization to cisplatin”.

The values are drawn from patent publication US7943600B2, “Antimicrobial combination therapy” (priority 2004, dated 2011).
